Experimental data: patent US8993565B2, “(6-oxo-1,6-dihydropyrimidin-2-yl)amide derivatives, preparation thereof and pharmaceutical use thereof as AKT(PKB) phosphorylation inhibitors” (Sanofi, priority 2009, dated 2015)
Each block holds one molecule with its values, some of them ahead of it.

Key:
[1] = system: AKT protein phosphorylated on serine 473 (P-AKT-S473); test: Study of pAKT expression in PC3 human prostate carcinoma cells measured by the MSD Multi-spot Biomarker Detection technique (Test B); assay type: cell-based; conditions: PC-3, inhibition of AKT phosphorylation (P-AKT-S473), MSD sandwich immunoassay, 1 to 2 h incubation, absolute IC50, mean of 2 experiments
Summary of the method: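 Lysate P-AKT-S473 quantified by MSD electrochemiluminescent sandwich immunoassay; inhibition vs DMSO and cell-free background, IC50 averaged over 2 experiments.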

[2] = system: AKT protein phosphorylated on serine 473 (pAKT-S473); test: Study of pAKT expression in PC3 human prostate carcinoma cells measured by western blotting (Test A); assay type: cell-based; conditions: PC-3, inhibition of AKT phosphorylation (pAKT-S473), 1 to 2 hours incubation, absolute IC50, mean of two experiments
Description: The inhibitory activity of the molecules on AKT phosphorylation is measured either by western blotting using the technique described below, or by the MSD Multi-spot Biomarker detection technique from Meso Scale Discovery also described below.
Study of pAKT Expression in PC3 Human Prostate Carcinoma Cells Measured by Western Blotting (Test A):
On day 2, the cells are incubated in the presence or absence of the test products for 1 to 2 hours at 37° C. in the presence of 5% CO2. The molecules, diluted in dimethyl sulphoxide (DMSO Sigma #D2650), are added from a 10-times concentrated stock solution, the final percentage of DMSO being 0.1%. The molecules are tested either at a single concentration of less than or equal to 10 μM, or at increasing concentrations in a range that can extend from less than 1 nM to 10 μM.
After this incubation, the cells are lysed for the preparation of the proteins.
The lysate is centrifuged for 10 min at 6000 rpm. 155 μl of supernatant are recovered. 150 μl are incubated for denaturation for 5 min at 95° C. in the presence of 4× NuPAGE LDS Sample Buffer diluted 4-fold (InVitrogen ref NP0007) and of 10× NuPAGE Sample Reducing Agent diluted 10-fold (InVitrogen ref NP0009). These samples are then frozen at −20° C.
The gel is then transferred on to an Invitrolon PVDF membrane (Invitrogen #LC2007) permeabilised beforehand and for a few seconds in ethanol (Ethanol Fischer Scientific #E/0600DF/15).
The transfer is carried out in a Biorad tank at 30 volts overnight or at 60 volts for 3 hours, in the presence of 20× NUPAGE Transfer Buffer diluted 20-fold (InVitrogen ref NP0006).
The membrane is then saturated in saturating solution composed of TBS (10× Tris Buffered Saline, Sigma #T5912, diluted 10-fold), 0.1% Tween (Sigma #P5927) and 3% BSA (Bovine Albumin Serum Fraction V, Sigma #A4503) for 6 h after overnight transfer or else for 1 h after transfer for a period of 3 h.
Two rinses for min in washing solution composed of TBS and 0.1% Tween 20 are carried out before hybridisation of the secondary antibodies.
The secondary antibodies are diluted 110000th for the rabbit anti-Mouse IgG HRP antibody (W402 Promega) and to 110000th for the goat anti-Rabbit IgG HRP antibody (W401 Promega) in saturating solution, and then shaken for 1 h at ambient temperature.
Two rinses for 30 min in washing solution are carried out and then a rinse for 5 min in H2O is carried out in order to eliminate the remaining Tween 20.
The luminescence is read with the FujiFilm device (Ray Test).
The FUJI device measures the total luminescence signal obtained (AU) for each band selected. It then subtracts the background noise (BG) proportional to the size of the band selected (Area), said background noise being calculated from a specific background noise band, with a view to obtaining the specific signal (AU-BG) for each band. The band obtained in the absence of product and in the presence of 0.1% DMSO is considered to be the 100% signal. The software calculates the % specific activity (Ratio) obtained for each band selected as a function of this 100% signal. The percentage inhibition is calculated for each concentration according to the formula (100%−Ratio).
Two independent experiments make it possible to calculate the mean of the percentages of inhibition obtained at a given concentration for the products tested only at one concentration.
Two independent experiments make it possible to calculate the mean of the IC50s.

SMILES: Cc1cccc(NC(=O)Cc2nc(N3CCOCC3)cc(=O)[nH]2)c1F [Example 41, N-(2-fluoro-3-methylphenyl)-2-[4-(morpholin-4-yl)-6-oxo-1,6-dihydropyrimidin-2-yl]acetamide]
IC50 [1]: 60 nM
IC50 [2]: 290 nM

SMILES: O=C(Cc1nc(N2CCOCC2)cc(=O)[nH]1)Nc1cccc2ocnc12 [Example 42, N-(1,3-benzoxazol-4-yl)-2-[4-(morpholin-4-yl)-6-oxo-1,6-dihydropyrimidin-2-yl]acetamide]
IC50 [1]: 148 nM
IC50 [2]: 400 nM

SMILES: CCOc1cccc(NC(=O)Cc2nc(N3CCOCC3)cc(=O)[nH]2)c1 [Example 58, N-(3-ethoxyphenyl)-2-[4-(morpholin-4-yl)-6-oxo-1,6-dihydropyrimidin-2-yl]acetamide]
IC50 [1]: 71 nM
IC50 [2]: 760 nM

SMILES: COc1cc(F)ccc1NC(=O)Cc1nc(N2CCOCC2)cc(=O)[nH]1 [Example 45, N-(4-fluoro-2-methoxyphenyl)-2-[4-(morpholin-4-yl)-6-oxo-1,6-dihydropyrimidin-2-yl]acetamide]
IC50 [2]: 261 nM

SMILES: O=C(Cc1nc(N2CCOCC2)cc(=O)[nH]1)Nc1cccc(Br)c1 [Example 18, N-(3-bromophenyl)-2-[4-(morpholin-4-yl)-6-oxo-1,6-dihydropyrimidin-2-yl]acetamide]
IC50 [2]: 23 nM

SMILES: O=C(Cc1nc(N2CCOCC2)cc(=O)[nH]1)Nc1cccc(O)c1 [Example 32, N-(3-hydroxyphenyl)-2-[4-(morpholin-4-yl)-6-oxo-1,6-dihydropyrimidin-2-yl]acetamide]
IC50 [2]: 3640 nM

SMILES: O=C(Cc1nc(N2CCOCC2)cc(=O)[nH]1)Nc1ccc(F)c(OC(F)(F)F)c1 [Example 54, N-[4-fluoro-3-(trifluoromethoxy)phenyl]-2-[4-(morpholin-4-yl)-6-oxo-1,6-dihydropyrimidin-2-yl]acetamide]
IC50 [1]: 67 nM
IC50 [2]: 807 nM

SMILES: C#Cc1cccc(NC(=O)Cc2nc(N3CCOCC3)cc(=O)[nH]2)c1 [Example 48, N-(3-ethynylphenyl)-2-[4-(morpholin-4-yl)-6-oxo-1,6-dihydropyrimidin-2-yl]acetamide]
IC50 [2]: 184 nM

SMILES: O=C(Cc1nc(N2CCOCC2)cc(=O)[nH]1)Nc1cccc(F)c1 [Example 14, N-(3-fluorophenyl)-2-[4-(morpholin-4-yl)-6-oxo-1,6-dihydropyrimidin-2-yl]acetamide]
IC50 [1]: 74 nM
IC50 [2]: 570 nM

SMILES: O=C(Cc1nc(N2CCOCC2)cc(=O)[nH]1)Nc1ccc(Cl)cc1 [Example 15, N-(4-chlorophenyl)-2-[4-(morpholin-4-yl)-6-oxo-1,6-dihydropyrimidin-2-yl]acetamide]
IC50 [2]: 1420 nM

SMILES: COc1ccccc1NC(=O)Cc1nc(N2CCOCC2)cc(=O)[nH]1 [Example 11, N-(2-methoxyphenyl)-2-[4-(morpholin-4-yl)-6-oxo-1,6-dihydropyrimidin-2-yl]acetamide]
IC50 [2]: 632 nM

Continued, values first:

IC50 [1]: 533 nM
melting point: 234 °C
SMILES: O=C(Cc1nc(N2CCOCC2)cc(=O)[nH]1)N1CCc2c(CO)cccc21 [Example 132, 2-{2-[4-(hydroxymethyl)-2,3-dihydro-1H-indol-1-yl]-2-oxoethyl}-6-(morpholin-4-yl)pyrimidin-4(3H)-one]

IC50 [1]: 41 nM
melting point: 238 °C
SMILES: O=C(Cc1nc(N2CCOCC2)cc(=O)[nH]1)N1CCCc2c(Cl)cccc21 [Example 131, 2-[2-(5-chloro-3,4-dihydroquinolin-1(2H)-yl)-2-oxoethyl]-6-(morpholin-4-yl)pyrimidin-4(3H)-one]

IC50 [1]: 234 nM
melting point: 232 °C
SMILES: O=C(Cc1nc(N2CCOCC2)cc(=O)[nH]1)Nc1cccc2c1NCCC2 [Example 148, 2-[4-(morpholin-4-yl)-6-oxo-1,6-dihydropyrimidin-2-yl]-N-(1,2,3,4-tetrahydroquinolin-8-yl)acetamide]

IC50 [1]: 51 nM
melting point: 226 °C
SMILES: Cn1c(CC(=O)N2CCc3c(Br)cccc32)nc(N2CCOCC2)cc1=O [Example 116, 2-[2-(4-bromo-2,3-dihydro-1 H-indol-1-yl)-2-oxoethyl]-3-methyl-6-(morpholin-4-yl)pyrimidin-4(3H)-one]

IC50 [1]: 44 nM
melting point: 257 °C
SMILES: CCOc1cccc2c1CCN2C(=O)Cc1nc(N2CCOCC2)cc(=O)[nH]1 [Example 121, 2-[2-(4-ethoxy-2,3-dihydro-1H-indol-1-yl)-2-oxoethyl]-6-(morpholin-4-yl)pyrimidin-4(3H)-one]

IC50 [1]: 301 nM
melting point: 107.5 °C
SMILES: O=C(Cc1nc(N2CCOCC2)cc(=O)[nH]1)N1CCc2ccccc2C1 [Example 111, 2-[2-(3,4-dihydroisoquinolin-2(1H)-yl)-2-oxoethyl]-6-(morpholin-4-yl)pyrimidin-4(3H)-one]

IC50 [1]: 38 nM
melting point: 202 °C
SMILES: CCN(CC)CC1CN(C(=O)Cc2nc(N3CCOCC3)cc(=O)[nH]2)c2ccccc21 (stereo not shown) [Example 145, 2-(2-{3-[(diethylamino)methyl]-2,3-dihydro-1 H-indol-1-yl}-2-oxoethyl)-6-(morpholin-4-yl)pyrimidin-4(3 H)-one]

IC50 [1]: 77 nM
melting point: 148 °C
SMILES: CC1Cc2ccccc2N1C(=O)Cc1nc(N2CCOCC2)cc(=O)n1C (stereo not shown) [Example 123, 3-methyl-2-[2-(2-methyl-2,3-dihydro-1H-indol-1-yl)-2-oxoethyl]-6-(morpholin-4-yl)pyrimidin-4(3H)-one]

IC50 [1]: 10 nM
melting point: 243 °C
SMILES: CN(C)CC1CN(C(=O)Cc2nc(N3CCOCC3)cc(=O)[nH]2)c2ccccc21 (stereo not shown) [Example 115, 2-[2-(3-dimethylaminomethyl-2,3-dihydroindol-1-yl)-2-oxoethyl]-6-morpholin-4-yl-3H-pyrimidin-4-one]

IC50 [1]: 61 nM
melting point: 250 °C
SMILES: Cn1c(CC(=O)N2CCc3cc(F)c(F)cc32)nc(N2CCOCC2)cc1=O [Example 127, 2-[2-(5,6-difluoro-2,3-dihydro-1H-indol-1-yl)-2-oxoethyl]-3-methyl-6-(morpholin-4-yl)pyrimidin-4(3H)-one]

IC50 [1]: 124 nM
melting point: 223 °C
SMILES: Cn1c(CC(=O)N2CCc3ccc(F)cc32)nc(N2CCOCC2)cc1=O [Example 124, 2-[2-(6-fluoro-2,3-dihydro-1H-indol-1-yl)-2-oxoethyl]-3-methyl-6-(morpholin-4-yl)pyrimidin-4(3H)-one]

IC50 [1]: 42 nM
melting point: 235 °C
SMILES: Cn1c(CC(=O)N2CCc3c(Cl)cccc32)nc(N2CCOCC2)cc1=O [Example 104, 2-[2-(4-chloro-2,3-dihydro-1H-indol-1-yl)-2-oxoethyl]-3-methyl-6-(morpholin-4-yl)pyrimidin-4(3H)-one]

IC50 [1]: 120 nM
IC50 [2]: 5380 nM
SMILES: O=C(Cc1nc(N2CCOCC2)cc(=O)[nH]1)Nc1cccc2[nH]ccc12 [Example 71, N-(1 H-indol-4-yl)-2-[4-(morpholin-4-yl)-6-oxo-1,6-dihydropyrimidin-2-yl]acetamide]

IC50 [1]: 79 nM
IC50 [2]: 202 nM
SMILES: Cn1c(CC(=O)Nc2ccc(F)c(Cl)c2)nc(N2CCOCC2)cc1=O [Example 68, N-(3-chloro-4-fluorophenyl)-2-[1-methyl-4-(morpholin-4-yl)-6-oxo-1,6-dihydropyrimidin-2-yl]acetamide]

IC50 [2]: 530 nM
SMILES: O=C(Cc1nc(N2CCOCC2)cc(=O)[nH]1)N1CCOc2ccccc21 [Example 62, 2-[2-(2,3-dihydro-4H-1,4-benzoxazin-4-yl)-2-oxoethyl]-6-(morpholin-4-yl)pyrimidin-4(3H)-one]

IC50 [2]: 6160 nM
SMILES: O=C(Cc1nc(N2CCOCC2)cc(=O)[nH]1)Nc1ccc(F)c([N+](=O)[O-])c1 [Example 63, N-(4-fluoro-3-nitrophenyl)-2-[4-(morpholin-4-yl)-6-oxo-1,6-dihydropyrimidin-2-yl]acetamide]
